Experiments:
[1] = target: T1, ATP-dependent translocase ABCB1 (Homo sapiens, UniProt P08183); assay: TP_TRANSPORTER: inhibition of Digoxin transepithelial transport (basal to apical) (Digoxin: 5 uM) in Caco-2 cells; assay type: functional, cell-based
[2] = target: T1, ATP-dependent translocase ABCB1; assay: TP_TRANSPORTER: transepithelial transport (basal to apical) in MDR1-expressing LLC-PK1 cells; assay type: functional, cell-based; conditions: pig

T1 sequence (P08183 whole entry): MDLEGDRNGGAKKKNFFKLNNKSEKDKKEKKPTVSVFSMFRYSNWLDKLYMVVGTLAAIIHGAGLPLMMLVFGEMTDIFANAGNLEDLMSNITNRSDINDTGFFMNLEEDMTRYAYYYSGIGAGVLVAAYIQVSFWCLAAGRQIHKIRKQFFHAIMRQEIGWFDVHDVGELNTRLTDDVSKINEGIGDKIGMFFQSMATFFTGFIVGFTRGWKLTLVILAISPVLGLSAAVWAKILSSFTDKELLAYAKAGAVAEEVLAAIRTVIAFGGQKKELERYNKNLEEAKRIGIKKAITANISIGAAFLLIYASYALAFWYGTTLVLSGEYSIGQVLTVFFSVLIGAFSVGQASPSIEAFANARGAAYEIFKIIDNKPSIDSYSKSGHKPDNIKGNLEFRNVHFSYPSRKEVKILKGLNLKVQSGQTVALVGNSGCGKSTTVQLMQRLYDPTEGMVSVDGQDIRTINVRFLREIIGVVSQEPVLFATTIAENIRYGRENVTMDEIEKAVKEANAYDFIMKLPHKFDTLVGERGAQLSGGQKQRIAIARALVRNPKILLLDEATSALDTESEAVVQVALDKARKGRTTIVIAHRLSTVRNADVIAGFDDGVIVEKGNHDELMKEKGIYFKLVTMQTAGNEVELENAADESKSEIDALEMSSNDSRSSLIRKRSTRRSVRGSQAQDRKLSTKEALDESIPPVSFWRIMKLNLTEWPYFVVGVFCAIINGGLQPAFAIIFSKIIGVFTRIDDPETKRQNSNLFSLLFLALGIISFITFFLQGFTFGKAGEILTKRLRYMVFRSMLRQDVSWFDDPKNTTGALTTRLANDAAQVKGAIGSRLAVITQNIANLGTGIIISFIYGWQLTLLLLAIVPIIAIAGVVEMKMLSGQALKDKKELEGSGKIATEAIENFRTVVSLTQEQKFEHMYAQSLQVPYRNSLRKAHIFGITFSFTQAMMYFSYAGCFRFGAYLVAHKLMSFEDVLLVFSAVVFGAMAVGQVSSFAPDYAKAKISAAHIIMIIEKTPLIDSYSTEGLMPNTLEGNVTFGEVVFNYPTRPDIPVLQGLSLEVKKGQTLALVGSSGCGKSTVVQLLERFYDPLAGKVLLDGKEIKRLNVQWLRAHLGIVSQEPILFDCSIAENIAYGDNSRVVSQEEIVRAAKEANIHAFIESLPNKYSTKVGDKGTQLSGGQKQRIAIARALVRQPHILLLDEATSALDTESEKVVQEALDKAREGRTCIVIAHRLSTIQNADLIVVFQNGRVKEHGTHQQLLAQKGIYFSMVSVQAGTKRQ

IC50 [1] [µM] | Activity [2] | SMILES
17.9 | substrate [+] | COc1ccnc(C[S+]([O-])c2nc3ccc(OC(F)F)cc3[nH]2)c1OC (stereo unspecified) [PANTOPRAZOLE]
17.7 | substrate [+] | COc1ccc2[nH]c([S+]([O-])Cc3ncc(C)c(OC)c3C)nc2c1 (stereo unspecified) [OMEPRAZOLE]

SMILES | IC50 [1] [µM] | Activity [2]
Cc1c(OCC(F)(F)F)ccnc1C[S+]([O-])c1nc2ccccc2[nH]1 (stereo unspecified) [LANSOPRAZOLE] | 62.8 | substrate [+]

Reference: ChEMBL document CHEMBL2074158, “Interaction of omeprazole, lansoprazole and pantoprazole with P-glycoprotein” (Naunyn Schmiedebergs Arch Pharmacol, 2001)
